# Data published in patent US5374623A, “Cysteine protease inhibitors effective for in vivo use” (Prototek, Inc., priority 1992, dated 1994).
# What was measured:
# [1] = tested on: DBA/Lac mice injected with type II chick collagen; test: Type II collagen arthritis in mice, oral 10 mg/kg/day (Example 13); format: in vivo; settings: gavage 10 mg/kg/day, day 21 to day 49
# Experimental: DBA/Lac mice were injected with 200 μg of type II chick collagen emulsified in Freund's complete adjuvant on day 0 and on day 21. Mu-Phe-HPhe-O-Ph was suspended in an ethanol solution which was then diluted to 10% (aq) and administered by gavage at a dose of 10 mg/kg/day from day 21 until sacrifice at day 49. The severity of joint inflammation was evaluated grossly at seven day intervals beginning on day 21. The effect of oral administration of Mu-Phe-HPhe-O-Ph on the severity of bone lesions in adjuvant-induced arthritis wa determined by evaluating osseous mineralization, periostat proliferation, bone erosion, joint space narrowing and osseous fragmentation. All lesions were scored on a scale of 0 (normal architecture) to 3 (severe or marked changes). Values calculated were means values ±1 std. error of the mean. […] The effect of oral administration of Mu-Phe-HPhe-O-Ph on the histological aspects of adjuvant-induced arthritis was determined by evaluating inflammation, focul ulcers, tibiotarsal joint cartilage destruction, bone destruction and periosteal proliferation. Inflammation was scored on a scale of 0 (no inflammation) to 3 (severe) based on the extent of edema and cell infiltration. Focul ulcer cartilage destruction was measured as the percent of articular cartilage surfaces with focal destruction which exposed underlying subchondral bone. […]
# experimental gingivitis = test: Experimental gingivitis in human subjects; format: in vivo; settings: twenty human subjects, inhibitor placed at test sites and sealed with Coe-pak for a week, blind, placebo control
# Text: Treatment of Gingivitis with Mu-Phe-HPhe-O-Ph. The effect of the inhibitor on gingival inflammation was studied by investigating its ability to prevent the development of experimental gingivitis. Twenty human subjects with healthy gingiva and no periodontal disease were recruited. The subjects received oral hygiene instruction and scaling prior to baseline. The test sites were the mesibuccal crevices on the upper first and second molars and premolars (bicuspids). Acrylic shields were made to cover the gingival margins of these teeth and were worn during oral hygiene to prevent brushing of the test and control sites. During the test period of three weeks the subjects were told to brush only the lower teeth and upper anteriors and to ear the shields during brushing. The left side was used as the test side and the right was the control side in 10 subjects. The sides were reversed in the other 10 subjects so the subjects could act as their own controls. Thirty second GCF samples were taken prior to clinical measurements at baseline and at 1, 2, 3 and 4 weeks. These were assayed for cathepsins B and L-like activities. Clinical measurements of gingival index (GI), gingival bleeding index (GBI) and plaque index (PLI) were taken at test and control sites at zero, one, two, three and four weeks. […]
# [2] = tested on: DBA/Lac mice injected with type II chick collagen; test: Type II collagen arthritis in mice, oral 3-25 mg/kg/day (Example 14); format: in vivo; settings: gavage 3 to 25 mg/kg/day in phosphate buffered saline, day 21 to day 35; scale 0-3
# Experimental: DBA/Lac mice were injected with 200 μg of type II chick collagen emulsified in Complete Freund's Adjuvant on day 0 and on day 21. Mu-Phe-HPhe-O-Ph was suspended in phosphate buffered saline and administered by gavage from day 21 until sacrifice at day 35. Doses of between 3 mg/kg/day and 25 mg/kg/day were used, with the daily dosage being held constant over time for each test. The severity of joint inflammation was evaluated grossly at seven day intervals beginning on day 21. The effect of oral administration of Mu-Phe-HPhe-O-Ph on the severity of bone lesions in adjuvant-induced arthritis was determined by evaluating osseous mineralization, periostat proliferation, bone erosion, joint space narrowing and osseous fragmentation. All lesions were scored on a scale of 0 (normal architecture) to 3 (severe or marked changes). Values calculated were mean values ±1 std. error of the mean.
# [3] = target: Soluble extracts of P. falciparum (cysteine proteinase); test: Proteolytic activity of P. falciparum soluble extracts, substrate Z-Phe-Arg-AFC; format: biochemical; settings: read-out: IC50, proteolytic activity of P. falciparum extract
# Experimental: Soluble extracts of P. falciparum and P. vinckei were prepared and proteolytic activity was assayed with fluorogenic peptide substrate Z-Phe-Arg-AFC. […] The concentrations at which activity was inhibited by 50% (IC50) was calculated.
# Soluble extracts of P. falciparum and P. vinckei were prepared and proteolytic activity was assayed with fluorogenic peptide substrate Z-Phe-Arg-AFC. […] The concentration at which activity was inhibited by 50%. (IC50) was calculated.
# Soluble extracts of P. falciparum and P. vinckei were prepared and proteolytic activity was assayed with fluorogenic peptide substrate Z-Phe-Arg-AFC. […] The concentration at which activity was inhibited by 50% (IC50) was calculated.
# The concentration at which activity was inhibited by 50% (IC50) was calculated.
smiles,measurement,setting,value
"O=C(O)Cc1ccccc1OCC(=O)[C@H](CCc1ccccc1)NC(=O)[C@H](Cc1ccccc1)NC(=O)N1CCOCC1 [Mu-Phe-HPhe-O-Ph, (4-morpholinylcarbonyl)-L-phenylalanyl-L-homophenylalanyl-(2-carboxymethyl)phenoxymethyl ketone]",histological aspects values vs control animals,"[1]; inflammation, focul ulcers, tibiotarsal joint cartilage destruction, bone destruction, periosteal proliferation",significantly (p<0.05) lower than the values of control animals
same,bone lesion severity values vs control animals,"[1]; osseous mineralization, periostat proliferation, bone erosion, joint space narrowing, osseous fragmentation, scale 0-3",significantly (p<0.05) lower than the values of control animals
same,"GI, GBI, PLI and cysteine proteinase levels at test vs control sites",experimental gingivitis,reduced all parameters tested at the test sites
same,bone lesion severity values vs control animals,[2],significantly (p<0.05) lower than the values of control animals
same,IC50,[3],3 nM
